Measurements: PMC13001051, “TRPA1-kinase axis polarization: Nepetalactone drives pest repulsion and predator attraction via divergent PKC/CaMKII signaling” (Journal of Advanced Research, 2025)

Experiments:
Assay in all cases: Fluo-4 calcium flux in transfected HEK293T cells
HaTRPA1 = target: T1, HaTRPA1 (Harmonia axyridis, UniProt Z9S2A3GZC9); type: cell-based
T1 construct: full-length in pcDNA3.1(+)-mCherry, HEK293T cells
T1 sequence (Z9S2A3GZC9 1-1276): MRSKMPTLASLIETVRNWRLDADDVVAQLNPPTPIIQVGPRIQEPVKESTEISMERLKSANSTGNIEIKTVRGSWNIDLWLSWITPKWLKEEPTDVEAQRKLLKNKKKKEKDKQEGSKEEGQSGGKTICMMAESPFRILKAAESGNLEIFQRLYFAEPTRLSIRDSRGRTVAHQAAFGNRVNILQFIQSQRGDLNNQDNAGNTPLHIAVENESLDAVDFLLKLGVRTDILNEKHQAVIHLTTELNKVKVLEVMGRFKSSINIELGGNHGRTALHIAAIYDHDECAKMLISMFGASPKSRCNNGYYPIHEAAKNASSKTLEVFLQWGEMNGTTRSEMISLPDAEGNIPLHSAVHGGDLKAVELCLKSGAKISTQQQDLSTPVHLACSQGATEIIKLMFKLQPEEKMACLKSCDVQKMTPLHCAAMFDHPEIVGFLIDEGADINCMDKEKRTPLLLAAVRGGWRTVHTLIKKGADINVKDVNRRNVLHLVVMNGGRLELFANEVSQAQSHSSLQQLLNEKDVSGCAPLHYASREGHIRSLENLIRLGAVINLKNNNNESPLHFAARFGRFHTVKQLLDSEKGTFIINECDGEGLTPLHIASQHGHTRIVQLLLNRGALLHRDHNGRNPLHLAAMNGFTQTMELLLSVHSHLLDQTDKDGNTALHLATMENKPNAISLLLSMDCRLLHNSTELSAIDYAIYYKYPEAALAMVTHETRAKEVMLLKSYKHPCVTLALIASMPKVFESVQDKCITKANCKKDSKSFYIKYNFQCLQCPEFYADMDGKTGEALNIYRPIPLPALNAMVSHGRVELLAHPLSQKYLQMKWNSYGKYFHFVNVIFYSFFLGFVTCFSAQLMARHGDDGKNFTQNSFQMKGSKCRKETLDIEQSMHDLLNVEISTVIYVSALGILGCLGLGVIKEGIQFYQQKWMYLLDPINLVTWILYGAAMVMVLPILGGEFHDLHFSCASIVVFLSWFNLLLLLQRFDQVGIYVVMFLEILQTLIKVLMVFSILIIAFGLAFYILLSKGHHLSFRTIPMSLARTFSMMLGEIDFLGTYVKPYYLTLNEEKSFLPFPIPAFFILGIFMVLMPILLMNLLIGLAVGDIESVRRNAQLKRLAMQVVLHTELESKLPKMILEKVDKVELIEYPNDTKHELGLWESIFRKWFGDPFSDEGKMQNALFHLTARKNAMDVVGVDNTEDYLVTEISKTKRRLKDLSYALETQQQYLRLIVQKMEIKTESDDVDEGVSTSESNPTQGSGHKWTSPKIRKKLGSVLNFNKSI
Description: Fluo-4 calcium flux in transfected HEK293T cells on HaTRPA1 | Concentration-response curves of nepetalactone-induced calcium signaling in HEK293T cells heterologously expressing HaTRPA1 or PjTRPA1

MuTRPA1 = tested on: T2, MuTRPA1; type: cell-based, Megalurothrips usitatus; settings: agonist; DMSO as negative control
T2 construct: gene TRPA1; full-length ORF (1403 aa, 16 ankyrin repeats) in pcDNA3.1(+)-mCherry, HEK293T cells

PjTRPA1 = tested on: T3, PjTRPA1; type: cell-based, Propylea japonica; settings: agonist; DMSO as negative control
T3 construct: gene TRPA1; full-length in pcDNA3.1(+)-mCherry, HEK293T cells
Description: Fluo-4 calcium flux in transfected HEK293T cells on PjTRPA1 | Concentration-response curves of nepetalactone-induced calcium signaling in HEK293T cells heterologously expressing HaTRPA1 or PjTRPA1

DcTRPA1 = tested on: T4, DcTRPA1; type: cell-based, Diaphorina citri; settings: agonist; DMSO as negative control
T4 construct: gene TRPA1; full-length ORF (1073 aa, 14 ankyrin repeats) in pcDNA3.1(+)-mCherry, HEK293T cells

CC1=COC(=O)C2C(C)CCC12 (stereo not shown) [nepetalactone]
EC50 (HaTRPA1): 404 µM | EC50 (MuTRPA1): 172 µM | EC50 (PjTRPA1): 128 µM | EC50 (DcTRPA1): 698 µM
